Measurements taken from the NIST ThermoML archive (doi:10.1021/acs.jced.8b01200).
± gives the expanded uncertainty stated by the source.

Key:
[1] = Crystal; DSC
[2] = Molar enthalpy of transition or fusion; details: Crystal; DSC

Compound | Triple point temperature [1] [K] | Molar enthalpy of transition or fusion [2] [kcal/mol]
CCCCCCCCCCCCCCCC(=O)OCC(COC(=O)CCCCCCCCCCCCCCC)OC(=O)CCCCCCCCCCCCCCC [1,2,3-propanetriyl tri(hexadecanoate)] | 336.8 ± 1.4 | 37.9 ± 0.789
Cc1ccc(C(C)C)c(O)c1 [3-methyl-6-isopropylphenol] | 321.9 ± 1.4 | 3.11 ± 0.502
CC(C)[C@@H]1CC[C@@H](C)C[C@H]1O [L-menthol] | 314.4 ± 2.4 | 2.85 ± 0.454
CCCCCCCCCCCCCCCCCC(=O)OCC(COC(=O)CCCCCCCCCCCCCCCCC)OC(=O)CCCCCCCCCCCCCCCCC [glycerol trioctadecanoate] | 343.8 ± 1.4 | 44 ± 0.884
CCCCCCCCCCCCCC(=O)OCC(COC(=O)CCCCCCCCCCCCC)OC(=O)CCCCCCCCCCCCC [1,2,3-propanetriyl tri(tetradecanoate)] | 329.4 ± 1.4 | 34.5 ± 0.741
